{"source": "patent US20260184675A1", "about": "“CHIRAL ISOMERIC SULFITE COMPOUND AND APPLICATION THEREOF” (Chengdu Hanova BioSciences Co., Ltd, priority 2024, published 2026)", "key": {"Magnaporthe grisea": {"tested_on": "Magnaporthe grisea", "assay_type": "cell-based", "settings": "100 ppm"}, "[1]": {"tested_on": "eggs of Spodoptera litura", "test": "Effect on hatching of eggs of Spodoptera litura, egg piece soaking", "assay_type": "in vivo", "settings": "Spodoptera litura eggs, 500 ppm, listed as 1′-(R, R)", "protocol": "• (1) Preparation of paper containing eggs: the egg mass was cut into small pieces, each containing about 60 eggs, soaked in a preformulated test agent for 10 minutes together with paper for egg raising (concentration of each compound of 500 ppm). After taken out, absorbent paper was used to absorb the excess solution adhered to the paper for egg raising and egg pieces. (2) Cultivation: Each egg piece was separately placed in a glass test tube (5.0 cm in height, 2.5 cm in diameter, the same below), which was sealed with plastic paper punctured with fine holes using insect needles and cultivated in an artificial climate chamber at a temperature of (24±1° C.), a relative humidity of (80±10) %, and a photoperiod of L:D=12:12. When the eggs developed until they were about to hatch, castor leaves with a diameter of about 3 cm were added for feeding the hatching larvae; • (3) Observation: the number of hatched and unhatched eggs per egg piece was checked and recorded, and the hatching rate of eggs was calculated according to the formula. Each treatment was repeated for 3 times. • (4) Survey of results: The experimental materials of each treatment group were regularly hydrated and moisturized, and the hatching of eggs was observed. On the 4th day after insecticide delivery, the number of hatched eggs for each treatment was recorded, and the survey of results was recorded in the original notebook. According to the experimental requirements and characteristics of agents, the survey time can be shortened or extended. • 1) Surveying and recording the number of hatched eggs for each treatment. • 2) Recording the developmental status of experimental eggs of Spodoptera litura, behavior status of nymphs, including abnormal phenomena such as delayed or stopped development of eggs of Spodoptera litura, etc. • (5) Calculation method: Based on the survey data, the prevention and control effect of each treatment was calculated according to the following formula, and the calculation results were kept to two decimal places. [formula] [formula]"}, "[2]": {"tested_on": "eggs of Tetranychus urticae", "test": "Effect on hatching of eggs of Tetranychus urticae, leaf disc method", "assay_type": "in vivo", "settings": "5 ppm, listed as 1′-(R, R); for Hatching rate (%): 5 days after insecticide delivery", "protocol": "(§1) • (1) Preparation of leaf discs containing eggs: 20 female adult mites of Tetranychus cinnabarinus were transferred onto leaf discs of Vicia faba with a diameter of 2.0 cm (with wetted filter paper at the bottom), then covered it with a lidded culture dish and cultivated under moisturizing conditions, the adult mites were removed within 36 hours and microscopic examination and counting were performed on leaf discs containing eggs. • (2) Investigation of egg population base: Before pesticide soaking, a microscopic examination was conducted on the egg basic number of each leaf disc, with 2 replicates set for each treatment. • (3) Pesticide soaking treatment: The leaf butterflies loaded with mite eggs were soaked in clear water and sulfite compounds for 10 seconds, respectively, then taken out and cultivated under moisturizing conditions. Each treatment should be repeated for no less than 3 times. • (4) Cultivation and observation: The […] were cultivated under normal conditions. Five days after insecticide delivery, the hatching status of mite eggs was investigated. • Note: The temperature and humidity conditions of the constant temperature and humidity incubator after the treatment should be controlled so as to avoid excessive temperature differences, which may cause generation and dripping of condensate water in the culture dish, resulting in abnormal death of eggs due to soaking in water; it is also necessary to ensure sufficient strong ambient light, without directing irradiating the leaves. • (5) Survey of Results: The experimental materials of each treatment group were regularly hydrated and moisturized, and the hatching of eggs was observed. On the 7th day after insecticide delivery, the number of hatched eggs for each treatment was recorded, and the survey of results was recorded in the original notebook. According to the experimental requirements and characteristics of agents, the survey time can be shortened or extended.\n(§2) • 1) Surveying and recording the number of hatched eggs for each treatment. • 2) Photographing and recording whether there was any pesticide damage to the leaf discs of Vicia faba. • 3) Recording the developmental status of experimental mite eggs, behavior status of nymph mites, including abnormal phenomena such as delayed or stopped development of mite eggs, difficulty in breaking hull for nymph mites, or painful struggles after hatching, etc. • (6) Calculation method: Based on the survey data, the prevention and control effect of each treatment was calculated according to the following formula, and the calculation results were kept to two decimal places.\nThis test adopted the method in Test Example 1 of technical section, mainly used leaf disc method to explore the inhibitory effect on hatching of eggs of Tetranychus urticae by compounds 1-(S,S), 1-(S,R), 1-(R,R), 1-(R,S), 1′-(S,S), 1′-(S,R), 1′-(R,R), 1′-(R,S), compound 1, compound 1′, S-10, R-10, S-10′, R-10′, compound 10, compound 10′, compound 19-(S,S), 19-(S,R), 19-(R,R), 19-(R,S), 19′-(S,S), 19′-(S,R), 19′-(R,R), 19′-(R,S), compound 19, and compound 19′. The concentration of all compounds was 5 ppm."}, "eggs of Panonychus citri": {"tested_on": "eggs of Panonychus citri", "test": "Effect on hatching of eggs of Panonychus citri, leaf disc method", "assay_type": "in vivo", "settings": "Panonychus citri eggs, 1 ppm, listed as 1′-(R, R)", "protocol": "as §1, §2\nThis test adopted the method in Test Example 1 of technical section, mainly used leaf disc method to explore the effect on hatching of eggs of Panonychus citri by compounds 1-(S,S), 1-(S,R), 1-(R,R), 1-(R,S), 1′-(S,S), 1′-(S,R), 1′-(R,R), 1′-(R,S), compound 1, compound 1′, S-10, R-10, S-10′, R-10′, compound 10, compound 10′, compound 19-(S,S), 19-(S,R), 19-(R,R), 19-(R,S), 19′-(S,S), 19′-(S,R), 19′-(R,R), 19′-(R,S), compound 19, and compound 19′. The concentration of all compounds was 1 ppm."}, "eggs of Thrips": {"tested_on": "eggs of Thrips", "test": "Effect on hatching of eggs of Thrips, leaf disc method", "assay_type": "in vivo", "settings": "100 ppm, listed as 1′-(R, R); for Hatching rate (%): 5 days after insecticide delivery", "protocol": "as §1, §2\nThis test adopted the method in Test Example 1 of technical section, mainly used leaf disc method to explore the inhibitory effect on hatching of eggs of Thrips by 1-(S,S), 1-(S,R), 1-(R,R), 1-(R,S), 1′-(S,S), 1′-(S,R), 1′-(R,R), 1′-(R,S), compound 1, compound 1′, S-10, R-10, S-10′, R-10′, compound 10, compound 10′, compound 19-(S,S), 19-(S,R), 19-(R,R), 19-(R,S), 19′-(S,S), 19′-(S,R), 19′-(R,R), 19′-(R,S), compound 19, and compound 19′. The concentration of all compounds was 100 ppm."}}}
{"smiles": "CC(COc1ccc(Cl)cc1Cl)OS(=O)OCCF", "note": "[1′-(R,R)]", "values": [{"measurement": "inhibitory rate against Magnaporthe grisea (in words)", "setting": "Magnaporthe grisea", "value": "strong inhibitory rate"}, {"measurement": "Average antifungal rate (%)", "setting": "Magnaporthe grisea; 96-well plate, average of 3 replicates", "value": 84.86, "unit": "%"}, {"measurement": "Antifungal rate of Magnaporthe grisea (%), Replicate 1", "setting": "Magnaporthe grisea; 96-well plate, replicate 1", "value": 84.82, "unit": "%"}, {"measurement": "Antifungal rate of Magnaporthe grisea (%), Replicate 2", "setting": "Magnaporthe grisea; 96-well plate, replicate 2", "value": 83.06, "unit": "%"}, {"measurement": "Antifungal rate of Magnaporthe grisea (%), Replicate 3", "setting": "Magnaporthe grisea; 96-well plate, replicate 3", "value": 86.71, "unit": "%"}, {"measurement": "Hatching rate (%), Replicate 1", "setting": "[1]; 4 days after delivery, replicate 1", "value": 61.82, "unit": "%"}, {"measurement": "Hatching rate (%), Replicate 2", "setting": "[1]; 4 days after delivery, replicate 2", "value": 64.29, "unit": "%"}, {"measurement": "Hatching rate (%), Replicate 3", "setting": "[1]; 4 days after delivery, replicate 3", "value": 62.71, "unit": "%"}, {"measurement": "Number of unhatched larvae 4 days after insecticide delivery, Replicate 1", "setting": "[1]; soaked 10 minutes, replicate 1", "value": 21}, {"measurement": "Number of unhatched larvae 4 days after insecticide delivery, Replicate 2", "setting": "[1]; soaked 10 minutes, replicate 2", "value": 20}, {"measurement": "Number of unhatched larvae 4 days after insecticide delivery, Replicate 3", "setting": "[1]; soaked 10 minutes, replicate 3", "value": 22}, {"measurement": "Hatching rate (%)", "setting": "[2]; Replicate 1", "value": 17.91, "unit": "%"}, {"measurement": "Hatching rate (%)", "setting": "[2]; Replicate 2", "value": 19.28, "unit": "%"}, {"measurement": "Number of hatched larvae 5 days after insecticide delivery", "setting": "[2]; Replicate 1", "value": 12}, {"measurement": "Number of hatched larvae 5 days after insecticide delivery", "setting": "[2]; Replicate 2", "value": 16}, {"measurement": "Hatching rate (%), Replicate 1", "setting": "eggs of Panonychus citri; 5 days after delivery, replicate 1", "value": 8.33, "unit": "%"}, {"measurement": "Hatching rate (%), Replicate 2", "setting": "eggs of Panonychus citri; 5 days after delivery, replicate 2", "value": 7.07, "unit": "%"}, {"measurement": "Hatching rate (%), Replicate 3", "setting": "eggs of Panonychus citri; 5 days after delivery, replicate 3", "value": 5.51, "unit": "%"}, {"measurement": "Number of hatched larvae 5 days after insecticide delivery, Replicate 1", "setting": "eggs of Panonychus citri; leaf disc, replicate 1", "value": 6}, {"measurement": "Number of hatched larvae 5 days after insecticide delivery, Replicate 2", "setting": "eggs of Panonychus citri; leaf disc, replicate 2", "value": 7}, {"measurement": "Number of hatched larvae 5 days after insecticide delivery, Replicate 3", "setting": "eggs of Panonychus citri; leaf disc, replicate 3", "value": 7}, {"measurement": "Hatching rate (%)", "setting": "eggs of Thrips; Replicate 1", "value": 12.68, "unit": "%"}, {"measurement": "Hatching rate (%)", "setting": "eggs of Thrips; Replicate 2", "value": 12.79, "unit": "%"}, {"measurement": "Hatching rate (%)", "setting": "eggs of Thrips; Replicate 3", "value": 14.29, "unit": "%"}, {"measurement": "Number of hatched larvae 5 days after insecticide delivery", "setting": "eggs of Thrips; Replicate 1", "value": 18}, {"measurement": "Number of hatched larvae 5 days after insecticide delivery", "setting": "eggs of Thrips; Replicate 2", "value": 11}, {"measurement": "Number of hatched larvae 5 days after insecticide delivery", "setting": "eggs of Thrips; Replicate 3", "value": 15}]}
